# Results from patent US10842892B2, “Methods and apparatus for synthesizing imaging agents, and intermediates thereof” (Lantheus Medical Imaging, Inc., priority 2010, dated 2020).
# Legend:
# normal rats and dogs = settings: cited from earlier work
# normal subjects = assay: human safety, dosimetry, biodistribution and rest-stress myocardial imaging in normal subjects; type: in vivo
# Protocol: 25 normal subjects were enrolled in 2 studies: 13 received 222 MBq I.V. At rest (R) only and 12 more subjects received 94 MBq at R and, on a second day, 124 MBq at peak adenosine stress (Adeno, n=6) or at peak treadmill exercise (Ex, n=6). Physical exam, laboratory, vital signs, ECG, and EEG were monitored pre- and post-injection. Myocardial (Myo), liver, blood pool and lung Standardized Uptake Values (SUV) were determined from sequential PET images over time. Mean dose for various organs and mean effective dose (ED in mSv/MBq) were estimated.
# myocardial ischemia = assay: imaging agent 1 and ^82Rb PET versus ^99mTc sestamibi SPECT, perfusion defect assessment (phase II); type: in vivo, human
# Protocol: Twenty-six patients (20 men) who underwent ^99mTc sestamibi SPECT and imaging agent 1 PET within 6 months at a single center in a phase II clinical trial were compared to 23 patients (matched by summed difference score (SDS) on SPECT) who underwent ^99mTc sestamibi SPECT and ^82Rb PET (25-50 mCi) within 6 months without change in clinical state. PET was performed with imaging agent 1 at rest (2.3-3.9 mCi) followed 60 min or 24 h later with exercise or adenosine stress (7.3-8.6 mCi). Perfusion defects on SPECT and PET were assessed by computer-assisted visual interpretation, using the standard 17 segment, 5 point-scoring model (0=normal; 4=absent uptake). The extent and severity of ischemia (SDS) was derived from the difference between summed stress score (SSS) and summed rest scores (SRS).
# Twenty six patients (20 men) underwent SPECT and PET within 6-months. PET was performed with imaging agent 1 at rest (2.3-3.9 mCi) followed 60 min (n=18) or 24 h (n=8) later with exercise (n=16) or adenosine (n=10) stress (7.3-8.6 mCi). Image quality of SPECT and PET was consensually assessed by 2 independent blinded readers and graded as excellent, good, or fair. Stress and rest perfusion defects on SPECT and PET were assessed by the same readers by computer-assisted visual interpretation, using the standard 17 segment, 5 point-scoring model (0=normal; 4=absent uptake). The extent and severity of ischemia (summed difference score (SDS)) was derived from the difference between summed stress (SSS) and summed rest scores (SRS). Image quality with PET was excellent in 24 and good in 2 patients. In contrast, there were 7 excellent, 18 good, and 1 fair quality study, p<0.001 by SPECT. In 14 patients with abnormal SPECT (SSS≥4), mean SDS was greater with PET than with SPECT (9.6±1.8 vs. 5.4±0.7, p=0.02). In all 12 patients with normal SPECT (SSS<4), SDS was zero by PET and SPECT.
smiles,measurement,setting,value
"CC(C)(C)n1ncc(OCc2ccc(COCC[18F])cc2)c(Cl)c1=O [imaging agent 1, 2-t-butyl-4-chloro-5-[4-(2-(^18F)fluoroethoxymethyl)-benzyloxy]-2H-pyridazin-3-1]","concentration (dose) inducing transit clinical signs (rapid and labored breathing, decreased activity, hunched posture, urination)",normal rats and dogs,≥ 0.2 mg/kg
same,dose at which these clinical signs were not observed,normal rats and dogs,≤ 0.1 mg/kg
same,adverse events,normal subjects; 25 normal subjects,no adverse events related to the tracer
same,Adeno Myo SUV,normal subjects; 10 mins,10.5 ± 1.5
same,Adeno Myo/liver,normal subjects; 10 mins,1.9 ± 0.6
same,Exercise Myo SUV,normal subjects; 10 mins,6.2 ± 2.1
same,Exercise Myo/liver,normal subjects; 10 mins,28.0 ± 33.6
same,Rest Myo SUV,normal subjects; 10 mins,3.9 ± 0.9
same,Rest Myo/liver,normal subjects; 10 mins,1.0 ± 0.3
same,Adeno Myo SUV,normal subjects; 30 mins,10.8 ± 2.1
same,Adeno Myo/liver,normal subjects; 30 mins,2.0 ± 0.5
same,Exercise Myo SUV,normal subjects; 30 mins,5.5 ± 1.0
same,Exercise Myo/liver,normal subjects; 30 mins,5.6 ± 1.0
same,Rest Myo SUV,normal subjects; 30 mins,4.2 ± 1.1
same,Rest Myo/liver,normal subjects; 30 mins,0.9 ± 0.2
same,Adeno Myo SUV,normal subjects; 60 mins,10.3 ± 2.1
same,Adeno Myo/liver,normal subjects; 60 mins,2.2 ± 0.5
same,Exercise Myo SUV,normal subjects; 60 mins,5.1 ± 0.9
same,Exercise Myo/liver,normal subjects; 60 mins,5.6 ± 1.3
same,Rest Myo SUV,normal subjects; 60 mins,4.5 ± 1.2
same,Rest Myo/liver,normal subjects; 60 mins,1.1 ± 0.2
same,Adeno Myo SUV,normal subjects; 90 mins,9.6 ± 2.1
same,Adeno Myo/liver,normal subjects; 90 mins,2.6 ± 0.5
same,Exercise Myo SUV,normal subjects; 90 mins,4.9 ± 0.9
same,Exercise Myo/liver,normal subjects; 90 mins,5.8 ± 1.5
same,Rest Myo SUV,normal subjects; 90 mins,4.3 ± 1.3
same,Rest Myo/liver,normal subjects; 90 mins,1.4 ± 0.2
same,Adeno Myo SUV,normal subjects; 149 mins,8.4 ± 2.1
same,Adeno Myo/liver,normal subjects; 149 mins,3.8 ± 1.0
same,Exercise Myo SUV,normal subjects; 149 mins,4.5 ± 0.8
same,Exercise Myo/liver,normal subjects; 149 mins,5.5 ± 1.5
same,Rest Myo SUV,normal subjects; 149 mins,4.1 ± 1.4
same,Rest Myo/liver,normal subjects; 149 mins,2.1 ± 0.3
same,mean effective dose (ED),normal subjects; at rest (R),0.019 mSv/MBq
same,mean effective dose (ED),normal subjects; with adenosine stress (Adeno),0.019 mSv/MBq
same,mean effective dose (ED),normal subjects; with exercise (Ex),0.015 mSv/MBq
same,SDS,myocardial ischemia; 12 patients with normal SPECT (SSS<4),zero
same,mean SDS (summed difference score),myocardial ischemia; 14 patients with abnormal SPECT (SSS≥4),9.6±1.8
same,"image quality excellent, number of patients","myocardial ischemia; 26 patients, 2 blinded readers",24
same,"image quality good, number of patients","myocardial ischemia; 26 patients, 2 blinded readers",2
same,"differences in SDS, PET compared to SPECT",myocardial ischemia; patients with normal SPECT (SSS<4),no differences
